Measured values taken from patent US8546377B2 (AbbVie Inc., priority 2009, dated 2013).
Read-outs that look alike come from different tables or passages of the source.

Experiments:
[1] = biological target: T1, human serotonin 5-HT2c receptor (Homo sapiens, UniProt P28335); test: Human 5-HT2C receptor radioligand binding assay (agonist site, [125I](±)DOI); details: membranes of transfected CHO cells, 0.2 nM [125I](±)DOI, 15 minutes at 37° C.
T1 construct: expressed in transfected cells; host or cells: CHO cells (membrane homogenate)
T1 sequence (P28335 33-458): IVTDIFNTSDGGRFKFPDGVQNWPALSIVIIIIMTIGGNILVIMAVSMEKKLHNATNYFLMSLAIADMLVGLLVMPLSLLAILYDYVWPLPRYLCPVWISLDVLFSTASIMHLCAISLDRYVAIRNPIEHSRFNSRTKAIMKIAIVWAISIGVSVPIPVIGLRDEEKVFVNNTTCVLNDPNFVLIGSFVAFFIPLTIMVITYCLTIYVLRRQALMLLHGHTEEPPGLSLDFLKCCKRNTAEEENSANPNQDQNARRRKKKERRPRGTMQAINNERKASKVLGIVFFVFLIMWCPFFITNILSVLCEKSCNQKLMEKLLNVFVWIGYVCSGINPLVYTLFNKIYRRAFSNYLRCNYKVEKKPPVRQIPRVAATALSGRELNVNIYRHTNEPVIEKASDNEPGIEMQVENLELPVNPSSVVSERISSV
Experimental: To determine the effectiveness of compounds having a formula (I), these compounds can be evaluated in a radioligand binding assay for the agonist site of the human serotonin 5-HT2c receptor or in vitro models of cellular function.
(i) Human 5-HT2C Receptor Radioligand Binding Assay
Affinity of compounds for the agonist site of the 5-HT2c receptor in transfected CHO cells was determined in a radioligand binding assay essentially as described by Bryant, H. U., et al., Life Sciences (1996) 59(15), 1259-1268.

5HT2C receptors [2] = biological target: T2, 5HT2C receptors (Homo sapiens, UniProt P28335); test: Human 5-HT2C functional assay in CHO-K1 cells (calcium flux, FLIPR); type: cell-based; design: expressed in transfected cells; host or cells: CHO-K1 cells; details: for Emax: percentage relative to the effect of serotonin
T2 sequence (P28335 33-458): T1 sequence (P28335 33-458)
Summary of the method: (§1)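 Frozen CHO-K1 cells over-expressing receptor, serum-starved overnight, loaded with Ca4 dye plus 2.5 mM probenecid for 60 min at room temperature. FLIPR fluorescence (ex 480/em 530 nm, 25° C) recorded 3 min after compound addition; 6-point 1:10 series from 10 μM, 0.2% DMSO. Response normalized to serotonin, 4-parameter fit gives EC50; Emax as % of serotonin.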

5HT2C receptors [3] = biological target: T2, 5HT2C receptors; test: Human 5-HT2C functional assay in 1321N1 cells (intracellular calcium, FLIPR); type: cell-based; design: expressed in transfected cells; host or cells: 1321N1 cells; details: for EC50: 1321N1 cells stably transfected, maximum calcium response, read-out: EC50 (μM), 5-HT2c Agonist Activity; for Emax: 1321N1 cells, percentage relative to the effect of serotonin, read-out: Emax (%), 5-HT2c Agonist Activity
Experimental: (ii) Human 5-HT2C Functional Assay in 1321N1 Cells
Functional activity was determined by testing the effect of the compounds on intracellular calcium levels in 1321N1 cells stably transfected with the human 5-HT2C receptor. Cells were seeded into 96-well plates at 50,000 cells/well and grown overnight in tissue culture medium (DMEM with Glutamax I (Invitrogen), containing 10% dFCS, 50 μg/mL Gentamicin, 400 μg/mL Geneticin) at 37° C. and 7% CO2. Growth medium was replaced by medium without dFCS for overnight incubation. Cells were loaded with a fluorescent calcium-sensitive dye in the presence of 1% probenicid according to the manufacturer's protocol (Fluo4 AM, Molecular Devices). Serial compound dilutions (final concentrations 10^−10 to 10^−5 M) were added to the cells either alone or in the presence of serotonin (10^−9 M) and the maximum calcium response was determined using a FLIPR instrument (Molecular Devices). Concentration-response curves were fitted using a four-parameter logistic equation (GraphPad Prism). The concentration at which the compound exerts half its maximal effect is named the ‘effective concentration 50’ or ‘EC50’ and is listed in Table 2.
Emax is the maximum functional response or efficacy expressed as a percentage relative to the effect of serotonin.

5HT2B receptors = biological target: T3, 5HT2B receptors (Homo sapiens, UniProt P41595); test: Human 5-HT2B functional assay in CHO-K1 cells (calcium flux, FLIPR); type: cell-based; details: for Emax: CHO-K1, read-out: Emax (%), 5-HT2B Agonist Activity
T3 construct: expressed in transfected cells; host or cells: CHO-K1 cells
Summary of the method: as §1

[4] = CHO-K1, read-out: Emax (%), 5-HT2c Agonist Activity, CHO-K1 cells

T3 sequence (P41595 whole entry): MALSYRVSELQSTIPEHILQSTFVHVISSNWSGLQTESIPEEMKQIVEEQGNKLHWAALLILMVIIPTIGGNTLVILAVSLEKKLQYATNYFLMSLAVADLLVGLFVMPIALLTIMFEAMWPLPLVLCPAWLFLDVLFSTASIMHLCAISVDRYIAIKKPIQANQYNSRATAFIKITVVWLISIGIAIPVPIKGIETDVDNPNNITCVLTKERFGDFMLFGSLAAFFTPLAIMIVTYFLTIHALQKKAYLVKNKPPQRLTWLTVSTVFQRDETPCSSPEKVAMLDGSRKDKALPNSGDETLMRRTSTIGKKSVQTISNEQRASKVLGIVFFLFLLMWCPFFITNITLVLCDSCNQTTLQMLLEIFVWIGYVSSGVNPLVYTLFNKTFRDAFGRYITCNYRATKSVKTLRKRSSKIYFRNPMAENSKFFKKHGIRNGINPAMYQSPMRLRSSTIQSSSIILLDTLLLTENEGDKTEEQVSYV

Row | SMILES | Ki [1] | EC50 (5HT2C receptors [2]) | Emax (5HT2C receptors [2]; [4]) | EC50 (5HT2C receptors [3]) | Emax (5HT2C receptors [3]) | EC50 (5HT2B receptors) | Emax (5HT2B receptors) | EC50 (5HT2C receptors [2]; CHO-K1 cells over-expressing 5HT2C, calcium flux, read-out: EC50 (μM), 5-HT2c Agonist Activity) | Emax (5HT2C receptors [2]; CHO-K1 cells, read-out: Emax (%), 5-HT2c Agonist Activity) | EC50 (5HT2B receptors; CHO-K1 cells over-expressing 5HT2B, calcium flux, read-out: EC50 (μM), 5-HT2B Agonist Activity)
1 | Brc1ccc2c(c1)NCCC1CNCCN21 (centres unmarked) [Example 19, 9-bromo-1,2,3,4,4a,5,6,7-octahydropyrazino[1,2-a][1,5]benzodiazepine] | 0.14 µM | 0.02 µM | > 120% | 0.0283 µM | 85.5% | > 10 µM | – | – | – | –
2 | O=C1CC2CNCCN2c2c(Br)cccc2N1 (centres unmarked) [Example 30, 11-bromo-1,2,3,4,4a,5-hexahydropyrazino[1,2-a][1,5]benzodiazepin-6(7H)-one] | 0.016 µM | – | – | 0.0017 µM | 113% | – | – | – | – | –
3 | O=C1CC2CNCCN2c2cc(C(F)(F)F)ccc2N1 (centres unmarked) [Example 31, 10-(trifluoromethyl)-1,2,3,4,4a,5-hexahydropyrazino[1,2-a][1,5]benzodiazepin-6(7H)-one] | 0.087 µM | – | – | 0.0204 µM | 118% | – | – | – | – | –
4 | O=C1CC2CNCCN2c2cccc(F)c2N1 (centres unmarked) [Example 32, 8-fluoro-1,2,3,4,4a,5-hexahydropyrazino[1,2-a][1,5]benzodiazepin-6(7H)-one] | 0.042 µM | 0.008 µM | 100% | 0.0258 µM | 102% | > 10 µM | – | – | – | –
5 | O=C1CC2CNCCN2c2c(F)cccc2N1 (centres unmarked) [Example 33, 11-fluoro-1,2,3,4,4a,5-hexahydropyrazino[1,2-a][1,5]benzodiazepin-6(7H)-one] | 0.042 µM | 0.01 µM | > 120% | 0.0142 µM | 98% | > 10 µM | – | – | – | –
6 | O=C1CC2CNCCN2c2ccc(F)cc2N1 (centres unmarked) [Example 34, 9-fluoro-1,2,3,4,4a,5-hexahydropyrazino[1,2-a][1,5]-benzodiazepin-6(7H)-one] | 0.19 µM | – | – | 0.0893 µM | 100% | – | – | – | – | –
7 | O=C1CC2CNCCN2c2cc(F)ccc2N1 (centres unmarked) [Example 35, 10-fluoro-1,2,3,4,4a,5-hexahydropyrazino[1,2-a][1,5]benzodiazepin-6(7H)-one] | 0.11 µM | 0.02 µM | > 120% | 0.052 µM | 100% | 0.6 µM | 80% | – | – | –
8 | Cc1ccc2c(c1)N1CCNC[C@@H]1CC(=O)N2 [Example 36, (4aS)-10-methyl-1,2,3,4,4a,5-hexahydropyrazino[1,2-a][1,5]benzodiazepin-6(7H)-one] | 0.0091 µM | 0.002 µM | > 120% | 0.0015 µM | 104% | 0.008 µM | 100% | – | – | –
9 | O=C1C[C@H]2CNCCN2c2cc(Cl)c(Cl)cc2N1 [Example 37, (4aS)-9,10-dichloro-1,2,3,4,4a,5-hexahydropyrazino[1,2-a][1,5]benzodiazepin-6(7H)-one] | 0.014 µM | 0.0008 µM | 100% | 0.0032 µM | 99.5% | 0.003 µM | 100% | – | – | –
10 | CN1CCN2c3ccccc3NC(=O)CC2C1 (centres unmarked) [Example 38, 3-methyl-1,2,3,4,4a,5-hexahydropyrazino[1,2-a][1,5]benzodiazepin-6(7H)-one] | 0.2 µM | 0.08 µM | 100% | 0.0663 µM | 68% | > 10 µM | – | – | – | –
11 | O=C1CC2CNCCN2c2ccc3ccccc3c2N1 (centres unmarked) [Example 39, 3,3a,4,5,6,7-hexahydronaphtho[1,2-b]pyrazino[1,2-d][1,4]diazepin-2(1H)-one] | 0.034 µM | – | – | > 10 µM | – | – | – | – | – | –
12 | Cc1cccc2c1NC(=O)CC1CNCCN21 (centres unmarked) [Example 40, 8-methyl-1,2,3,4,4a,5-hexahydropyrazino[1,2-a][1,5]benzodiazepin-6(7H)-one] | 0.035 µM | 0.005 µM | 110% | 0.0068 µM | 89.5% | > 10 µM | – | – | – | –
13 | O=C1C[C@H]2CNCCN2c2cc(Cl)ccc2N1 [Example 41, (4aS)-10-chloro-1,2,3,4,4a,5-hexahydropyrazino[1,2-a][1,5]benzodiazepin-6(7H)-one] | 0.005 µM | 0.0008 µM | > 120% | 0.002 µM | 99.5% | 0.006 µM | 110% | – | – | –
14 | COc1ccc2c(c1)N1CCNC[C@@H]1CC(=O)N2 [Example 43, (4aS)-10-methoxy-1,2,3,4,4a,5-hexahydropyrazino[1,2-a][1,5]benzodiazepin-6(7H)-one] | 0.066 µM | 0.01 µM | > 120% | 0.0138 µM | 86% | 0.06 µM | 80% | – | – | –
15 | CCOc1ccc2c(c1)N1CCNCC1CC(=O)N2 (centres unmarked) [Example 44, 10-ethoxy-1,2,3,4,4a,5-hexahydropyrazino[1,2-a][1,5]benzodiazepin-6(7H)-one] | 0.15 µM | – | – | 0.0445 µM | 90% | – | – | 0.03 µM | > 120% | > 10 µM
16 | O=C1NCC2CNCCN2c2ccccc21 (centres unmarked) [Example 46, 2,3,4,4a,5,6-hexahydropyrazino[1,2-a][1,4]benzodiazepin-7(1H)-one] | 0.033 µM | 0.008 µM | > 120% | 0.0059 µM | 93% | 0.3 µM | 80% | – | – | –
